Legend:
[1] = system: NFκB; assay: NFκB inhibition (LPS-induced); format: cell-based; settings: in words
From the text: A focused library of alkyl or acyl c-substituted lysine-spermine conjugates is synthesized with even carbon-numbered chains of C14 to C20 lengths. […] Furthermore, the data showhigh activity compounds are those with chain lengths between C16 and C20. […] The exemplary compounds L-Lys-ε-(stearoyl)-N^1-spermine, D-Lys-ε-(stearoyl)-N^1-spermine, L-Lys-ε-(octadecanyl)-N^1-spermine and D-Lys-ε-(octadecanyl)—N1-spermine all show high activity for the prevention of LPS-induced NFκβ cytokine release from stimulated lymphocytes. Furthermore, the exemplary compounds L-Lys-ε-(stearoyl)-N^1-spermine, D-Lys-ε-(stearoyl)-N^1-spermine, L-Lys-ε-(octadecanyl)-N^1-spermine and D-Lys-ε-(octadecanyl)-N^1-spermine all show high activity for the prevention of LPS-induced NO release from stimulated lymphocytes.

[2] = system: TNF-α and IL-6 production in whole human blood; assay: Multiplexed cytokine assay ex vivo in human blood stimulated with LPS; format: cell-based; settings: versus polymyxin B
Protocol: The activity of a subset of active Lys-spermine compounds is examined for their ability to inhibit TNF-α and IL-6 production in whole human blood, stimulated ex vivo with LPS.
100 μl aliquots of fresh whole blood, anticoagulated with EDTA, obtained by venipuncture from healthy human volunteers with informed consent and as per guidelines approved by the Human Subjects Experimentation Committee, is exposed to an equal volume of 50 ng/ml of E. coli 0111:B4 LPS, with graded concentrations of test compounds diluted in saline for 4 h in a 96-well microtiter plate. The effect of the compounds on modulating cytokine production examined using a FACSArray multiplexed flow-cytometric bead array (CBA) system (Becton-Dickinson-Pharmingen, San Jose, Calif.). The system uses a sandwich ELISA-on-a-bead principle,^55;56 and is comprised of 6 populations of microbeads that are spectrally unique in terms of their intrinsic fluorescence emission intensities (detected in the FL3 channel of a standard flow cytometer). […] After washing the beads, a mixture of optimally paired second antibodies conjugated to phycoerythrin is added which then forms a fluorescent ternary complex with the immobilized cytokine, the intensity (measured in the FL2 channel) of which is proportional to the cytokine concentration on the bead. […] The data are analyzed in the CBA software suite that is integral to the FACSArray system.

In the case of `CCCCCCCCCCCCCCCCCC(=O)NCCCCC(N)C(=O)NCCCNCCCCNCCCN` [Compound 8, D-Lys-ε-(stearoyl)-N^1-spermine], the “prevention of LPS-induced NFκβ cytokine release from stimulated lymphocytes” value [1] is reported as “high activity” and the “inhibitory potency on TNF-α and IL-6 production” value [2] is reported as “almost as potent as polymyxin B”.
